Results taken from ChEMBL document CHEMBL1933021, “Novel and selective spiroindoline-based inhibitors of Sky kinase” (Bioorg Med Chem Lett, 2012).
Converted amounts (≈) assume the structure as drawn. The source made the active and inactive calls. No cut-off for these calls is given here.

Tests used:
Tyro3 (Mus musculus) = experiment: Inhibition of mouse Sky kinase assessed as inhibition of src substrate phosphorylation by ELISA
[1] = Aqueous solubility of compound at pH 6.5; assay type: physicochemical
[2] = Half life in human liver microsomes; assay type: ADME, Microsome
[3] = Clearance in po dosed Sprague-Dawley rat; assay type: ADME, organism-based; conditions: in vivo
[4] = Permeability of the compound by PAMPA assay; assay type: ADME; conditions: read-out: permeability
[5] = Half life in po dosed Sprague-Dawley rat; assay type: ADME, organism-based; conditions: in vivo
Cytochrome P450 2D6 = Cytochrome P450 2D6 (Homo sapiens, UniProt P10635); experiment: Inhibition of CYP2D6 using dextromethorphan as substrate; assay type: ADME
[6] = Oral bioavailability in Sprague-Dawley rat; assay type: ADME, organism-based; conditions: in vivo
Rattus norvegicus = experiment: Volume of distribution at steady state in po dosed Sprague-Dawley rat; assay type: ADME, organism-based; conditions: in vivo

Cytochrome P450 2D6, sequence (P10635 whole entry): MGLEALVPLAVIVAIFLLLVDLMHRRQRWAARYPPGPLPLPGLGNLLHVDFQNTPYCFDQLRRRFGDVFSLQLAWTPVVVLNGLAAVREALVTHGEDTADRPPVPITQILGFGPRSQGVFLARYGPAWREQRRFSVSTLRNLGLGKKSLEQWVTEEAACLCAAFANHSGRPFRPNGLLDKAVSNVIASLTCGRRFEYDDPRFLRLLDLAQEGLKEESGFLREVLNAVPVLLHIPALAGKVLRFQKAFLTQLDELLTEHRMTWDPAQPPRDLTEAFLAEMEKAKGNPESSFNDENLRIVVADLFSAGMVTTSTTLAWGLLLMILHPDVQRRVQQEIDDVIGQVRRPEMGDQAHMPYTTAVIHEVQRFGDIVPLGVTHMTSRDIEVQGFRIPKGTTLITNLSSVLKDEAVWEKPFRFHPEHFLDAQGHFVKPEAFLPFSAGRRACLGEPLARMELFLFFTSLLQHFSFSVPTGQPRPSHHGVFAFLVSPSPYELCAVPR

Structure (SMILES)	inhibition (Tyro3 (Mus musculus))	other results
O=C(c1cc2cc(Cl)ccc2[nH]1)N1C[C@@]2(CCN(C3CCNCC3)C2)c2ccccc21	Active	
COc1ccc2cc(C(=O)N3C[C@@]4(CCN(C5CCNC5)C4)c4ccccc43)[nH]c2c1 (stereo partly specified)	Active	
O=C(c1cc2cc(Cl)ccc2[nH]1)N1C[C@]2(CCN(C3CCNC3)C2)c2ccccc21 (stereo partly specified)		solubility [1]: 5.2 µM (≈ 2.19 µg/mL); half-life [2]: 1 h; CL/F [3]: 60 mL/min/kg; Papp [4]: 0.03 ×10⁻⁶ cm/s; half-life [5]: 3.1 h; IC50 (Cytochrome P450 2D6): 14 nM; bioavailability [6]: 14%; Vdss (Rattus norvegicus): 13 L/kg
O=C(c1cc2c(Cl)cccc2[nH]1)N1C[C@@]2(CCN(C3CCNC3)C2)c2ccccc21 (stereo partly specified)	Active	
NC(=O)c1ccc2cc(C(=O)N3C[C@@]4(CCN(C5CCNC5)C4)c4ccccc43)[nH]c2c1 (stereo partly specified)	Active	
COc1ccc2[nH]c(C(=O)N3C[C@@]4(CCN(C5CCNC5)C4)c4ccccc43)cc2c1 (stereo partly specified)	Active	
Cc1ccc(N2CC[C@]3(C2)CN(C(=O)c2cc4cc(F)ccc4[nH]2)c2ccccc23)cn1	Active	

Continued, in another order:

inhibition (Tyro3 (Mus musculus))	Structure (SMILES)	other results
Active	O=C(c1cc2cc(Cl)ccc2[nH]1)N1C[C@@]2(CCN(C3CCCNC3)C2)c2ccccc21 (stereo partly specified)	
Active	Cc1ccc2[nH]c(C(=O)N3C[C@@]4(CCN(C5CCNC5)C4)c4ccccc43)cc2c1 (stereo partly specified)	
Active	O=C(c1cc2cc(F)ccc2[nH]1)N1C[C@@]2(CCN(CC3CCCNC3)C2)c2ccccc21 (stereo partly specified)	
Active	O=C(c1cc2cc(F)ccc2[nH]1)N1C[C@@]2(CCN(C3CCCCC3)C2)c2ccccc21	
Active	CCN1CCCC(N2CC[C@@]3(CN(C(=O)c4cc5cc(F)ccc5[nH]4)c4ccccc43)C2)C1 (stereo partly specified)	
Active	O=C(c1cc2cc(Cl)ccc2[nH]1)N1C[C@@]2(CCN(C3CCNC3)C2)c2ccccc21 (stereo partly specified)	
Active	O=C(c1cc2cc(F)ccc2[nH]1)N1C[C@@]2(CCN(C3CNC3)C2)c2ccccc21	
